Measured values: the Deep4Chem optical property database
“And” between values parts separate entries of the source, which are not always exact repeats. Equal entries are not always repeated. One block for each compound: values may come before it.

Assay: solvent given as SMILES
[1] = in c1ccc2c(c1)c1ccccc1n2-c1ccc(-c2ccc(-n3c4ccccc4c4ccccc43)cc2)cc1

Compound: c1ccc(-c2nc(-c3ccccc3)nc(-c3ccc(N4c5ccccc5C5(c6ccccc64)c4ccccc4C4(c6ccccc6-c6ccccc64)c4ccccc45)cc3)n2)cc1
emission maximum (in Cc1ccccc1): 475.42 nm

Compound: CCOC(=O)c1c2c3c(ccc([N+](=O)[O-])c3c3cc4c(cc13)[Si](C)(C)O[Si]4(C)C)N(C)C2=O
emission maximum (in CC#N): 413 nm

Compound: CCOC(=O)c1c(CSc2ccccc2)n(C)c2cc(Br)c(O)c(CN(C)C)c12
emission maximum (in O): 350 nm

Compound: CNc1cc2nc3cc(Br)c(Br)cc3nc2cc1NC
emission maximum (in CCO): 542 nm

Compound: O=Cc1ccc(C#CC(C#Cc2ccc(C=O)o2)=Cc2ccc(C=C(C#Cc3ccc(C=O)o3)C#Cc3ccc(C=O)o3)s2)o1
emission maximum (in ClC(Cl)Cl): 577 nm

Compound: O=C1c2ccccc2C(=O)N1c1ccc(Cn2cncn2)cc1
emission maximum (in C1CCOC1): 361 nm | emission maximum (in C1COCCO1): 313 nm | emission maximum (in CC#N): 471 nm | emission maximum (in CC(C)=O): 407 nm | emission maximum (in CC(C)O): 427 nm | emission maximum (in CCCCCC): 310 nm | emission maximum (in CCCCO): 402 nm | emission maximum (in CCO): 422 nm | emission maximum (in CCOC(C)=O): 355 nm | emission maximum (in CCOCC): 339 nm | emission maximum (in CN(C)C=O): 503 nm | emission maximum (in CO): 440 nm | emission maximum (in CS(C)=O): 563 nm | emission maximum (in Cc1ccccc1): 323 nm | emission maximum (in ClCCl): 367 nm

Compound: Cc1ccccc1-c1c2ccc(=[N+]3CCN(C(=O)OC(C)(C)C)CC3)cc-2oc2cc(N3CCN(C(=O)OC(C)(C)C)CC3)ccc12
emission maximum (in CCO): 580 nm | emission maximum (in ClCCl): 577 nm

Compound: N#CC1=c2cc3c4c(c2Oc2c1cc1c5c2CCCN5CCC1)CCC[N+]=4CCC3
emission maximum (in CCO): 700 nm

Compound: CC1=CC(C)=[N+]2C1=C(c1ccccc1)c1c(C)c(-c3cccs3)c(C)n1[B-]2(F)F
emission maximum (in CO): 600 nm | emission maximum (in Cc1ccccc1): 591 nm | emission maximum (in ClCCl): 594 nm

Compound: O=P1(c2ccccc2)c2ccc(N3c4ccccc4Oc4ccccc43)cc2-c2cc(N3c4ccccc4Oc4ccccc43)ccc21
emission maximum (in Cc1ccccc1): 535 nm | emission maximum [1]: 551 nm

Compound: CC1(C)CC(=O)c2c(F)c(C(F)(F)F)c(F)c(F)c2N1
emission maximum (in CC#N): 419 nm | emission maximum (in CCO): 453 nm

Compound: c1ccc2c(c1)CCc1c-2cnc2c1-c1ccccc1CC2
emission maximum (in C1CCOC1): 356 nm | emission maximum (in CC#N): 358 nm | emission maximum (in CCCCCC): 358 nm | emission maximum (in CCOC(C)=O): 358 nm | emission maximum (in CO): 361 nm | emission maximum (in CS(C)=O): 360 nm | emission maximum (in Cc1ccccc1): 362 nm | emission maximum (in ClCCl): 363 nm

Compound: CC(=O)OCCOCCN1C(=O)c2cc(NCCOCCO)c3c4c(cc(NCCOCCO)c(c24)C1=O)C(=O)N(CCOCCOC(C)=O)C3=O
emission maximum (in CO): 641 nm | emission maximum (in ClC(Cl)Cl): 640 nm | emission maximum (in O): 657 nm

Compound: COC(=O)C(NC(=O)OC(C)(C)C)c1ccc2oc(-c3ccc(C#N)cc3)nc2c1 (stereo not drawn)
emission maximum (in CC1CCCCC1): 342 nm | emission maximum (in CC#N): 384 nm | emission maximum (in CO): 385 nm

Compound: CC1(C)c2ccccc2N(c2ccccc2)c2ccc(S(=O)(=O)c3ccc4c(c3)C(C)(C)c3ccccc3N4c3ccccc3)cc21
emission maximum (in Cc1ccccc1): 370.45 nm | emission maximum (in O=P(c1ccccc1)(c1ccccc1)c1ccccc1Oc1ccccc1P(=O)(c1ccccc1)c1ccccc1): 381 nm

Compound: CCN(CC)c1ccc(/C=C/C(=O)c2c(O)cc(C)oc2=O)cc1
emission maximum (in CC#N): 562 nm | emission maximum (in CCCO): 562 nm | emission maximum (in CCO): 570 nm | emission maximum (in CCOC(C)=O): 545 nm | emission maximum (in Cc1ccccc1): 534 nm | emission maximum (in ClCCl): 575 nm

Compound: CCCCCCCCCCN1C(=O)c2cc(NCCCOCCO)c3c4c(cc(NCCCOCCO)c(c24)C1=O)C(=O)N(CCCCCCCCCC)C3=O
emission maximum (in CO): 642 nm | emission maximum (in ClC(Cl)Cl): 640 nm

Compound: COc1ccccc1C1=[N+]2C(=Nc3c(-c4ccccc4)cc(-c4ccccc4OC)n3[B-]2(F)F)C(c2ccccc2)=C1
emission maximum (in Cc1ccccc1): 688 nm

Compound: COc1ccc2c(c1)C(=O)c1ccccc1-2
emission maximum (in C1CCCCC1): 518 nm | emission maximum (in CC#N): 568 nm

Compound: N#Cc1cc(C#N)c(-c2cc(-n3c4ccccc4c4ccccc43)cc(-n3c4ccccc4c4ccccc43)c2)cc1-c1cc(-n2c3ccccc3c3ccccc32)cc(-n2c3ccccc3c3ccccc32)c1
emission maximum (in Cc1ccccc1): 372 nm

Compound: COc1ccc2c(c1)c1cc(OC)ccc1n2-c1ccc2c(c1)-c1cc(-n3c4ccc(OC)cc4c4cc(OC)ccc43)ccc1P2(=O)c1ccccc1
emission maximum (in Cc1ccccc1): 476 nm | emission maximum [1]: 490 nm

Compound: O=C([O-])c1ccc(C(=O)[O-])c2cc3ccccc3cc12
emission maximum (in CN(C)C=O): 430 nm

Further lines, results first:

emission maximum (in ClCCl): 653 nm
Compound: Cc1ccc(-c2c3nc(c(-c4ccc(C)cc4)c4ccc([nH]4)c(-c4ccc(OC(=O)C(C)c5ccc(Oc6ccccc6)cc5)cc4)c4nc(c(-c5ccc(C)cc5)c5ccc2[nH]5)C=C4)C=C3)cc1 (stereo not drawn)

emission maximum (in ClCCl): 460 nm | emission maximum (in c1cc(-n2c3ccccc3c3ccccc32)cc(-n2c3ccccc3c3ccccc32)c1): 448 nm
Compound: O=S1(=O)c2ccccc2C2(c3cc(-c4ccc(N(c5ccccc5)c5ccccc5)cc4)ccc3-c3ccc(-c4ccc(N(c5ccccc5)c5ccccc5)cc4)cc32)c2ccccc21

emission maximum (in ClCCl): 469 nm
Compound: Fc1ccc(-c2cccc3ncc(-c4ccccc4)n23)cc1

emission maximum (in ClCCl): 619 nm
Compound: c1ccc(CSc2c3ccc(=[N+]4CCCCC4)cc-3oc3cc(N4CCCCC4)ccc23)cc1

emission maximum (in ClC(Cl)Cl): 643 nm
Compound: CCN1/C(=C\C2=C([O-])C(=C/C3=[N+](CC)c4ccccc4C3(C)C)/C2=O)C(C)(C)c2ccccc21

emission maximum (in CC#N): 586 nm
Compound: CN(C)c1ccc(-n2c(-c3ccc(C#N)cc3)nc3ccccc32)cc1

emission maximum (in CC#N): 475 nm | emission maximum (in CO): 492 nm | emission maximum (in ClCCl): 474 nm
Compound: O=C1c2ccccc2-c2c(-c3cc(Br)ccc3O)[nH]c(=O)n21

emission maximum (in ClCCl): 541 nm
Compound: O=[N+]([O-])c1ccc(O)c(-c2nc3c(c4c2-c2ccccc2CC4)-c2ccccc2CC3)c1

emission maximum (in C1CCCCC1): 405.03 nm | emission maximum (in CC#N): 508.48 nm | emission maximum (in ClCCl): 471.15 nm
Compound: O=S1c2ccc(-c3c4ccccc4cc4ccccc34)cc2-c2cc(-c3c4ccccc4cc4ccccc34)ccc21

emission maximum (in CC#N): 445 nm
Compound: COc1ccc(-c2pc3ccccc3s2)cc1 (stereo not drawn)

emission maximum (in C1CCCCC1): 517 nm | emission maximum (in C1CCOC1): 537 nm | emission maximum (in C1COCCO1): 510 nm | emission maximum (in CC#N): 543 nm and 498 nm | emission maximum (in CCCCCC): 510 nm and 515 nm | emission maximum (in CO): 525 nm and 534 nm | emission maximum (in ClC(Cl)Cl): 520 nm and 528 nm | emission maximum (in ClCCl): 528 nm
Compound: F[B-]1(F)n2c(nc(-c3ccccc3)c2-c2ccccc2)-c2cccc[n+]21

emission maximum (in C1CCOC1): 502 nm | emission maximum (in CC#N): 523 nm | emission maximum (in CCO): 515 nm | emission maximum (in CCOC(C)=O): 502 nm | emission maximum (in CN(C)C=O): 524 nm | emission maximum (in ClCCl): 518 nm | emission maximum (in c1ccccc1): 485 nm
Compound: O=C(c1ccc(N(c2ccccc2)c2ccccc2)cc1)[C@H]1[C@H](c2ccc(F)cc2)C[C@](O)(c2ccccn2)C[C@]1(O)c1ccccn1

emission maximum (in ClCCl): 447 nm
Compound: COc1ccc(-c2ccc(/C=C/c3ccncn3)cc2)cc1

emission maximum (in ClC(Cl)Cl): 436 nm
Compound: c1cc2ccc3[nH]c4ccc5cccc6c(c1)c2c3c4c56

emission maximum (in CC#N): 579 nm
Compound: CC1=C(C#Cc2ccccc2)C2=Cc3c(C#Cc4ccccc4)c(C)c(C)n3[B-](F)(F)[N+]2=C1C

emission maximum (in CN(C)C=O): 431 nm
Compound: CCN(CC)c1ccc(-c2nc(Oc3ccc(-c4nc5ccccc5[nH]4)cc3)nc(Oc3ccc(-c4nc5ccccc5[nH]4)cc3)n2)cc1

emission maximum (in ClCCl): 425 nm
Compound: O=P1(c2ccccc2)C(c2ccc(C(F)(F)F)cc2)=Cc2cc3ccccc3cc21 (stereo not drawn)

emission maximum (in ClC(Cl)Cl): 565 nm
Compound: CCCCCCN1C(=O)c2cccc3cc(/N=C\c4ccc(N(c5ccccc5)c5ccccc5)cc4)cc(c23)C1=O

emission maximum (in CCO): 458 nm
Compound: Cc1c(COC(=O)Cc2cccc3ccccc23)n2c(OCC(=O)Cc3cccc4ccccc34)c(C)c(=O)n2c1=O

emission maximum (in ClC(Cl)Cl): 425 nm
Compound: CCn1c2ccccc2c2cc3c(cc21)c1ccccc1n3CC

emission maximum (in C1CCOC1): 418 nm | emission maximum (in C1COCCO1): 421 nm | emission maximum (in CC#N): 421 nm | emission maximum (in CCCCCO): 422 nm | emission maximum (in CCCCO): 422 nm | emission maximum (in CCCO): 422 nm | emission maximum (in CCO): 421 nm | emission maximum (in CO): 421 nm | emission maximum (in COCCOC): 419 nm | emission maximum (in ClC(Cl)Cl): 436 nm | emission maximum (in ClCCl): 422 nm | emission maximum (in OCCO): 425 nm
Compound: O=C(O)c1c2ccccc2nc2ccccc12

emission maximum (in C1CCOC1): 450 nm
Compound: Cc1ccc(-c2cnc3nn4ccccc4c3n2)cc1

emission maximum (in CO): 586 nm
Compound: CC1=CC(/C=C/c2ccc(OCCCN=[N+]=[N-])cc2)=[N+]2C1=C(c1ccc(N(C)C)cc1)c1c(C)cc(C)n1[B-]2(F)F

emission maximum (in ClCCl): 430 nm
Compound: O=c1oc2ccccc2cc1-c1ccc(-c2ccc(-c3cc4ccccc4oc3=O)cc2)cc1

emission maximum (in ClC(Cl)Cl): 835 nm
Compound: CCCCCCCCCCOc1cc(OCCCCCCCCCC)cc(C2=C3C(/C=C/c4ccc(N(C)C)cc4)=C(C#Cc4ccc(C(C)(C)C)cc4)C(/C=C/c4ccc(N(C)C)cc4)=[N+]3[B-](F)(F)n3c(/C=C/c4ccc(N(C)C)cc4)c(C#Cc4ccc(C(C)(C)C)cc4)c(/C=C/c4ccc(N(C)C)cc4)c32)c1

emission maximum (in ClCCl): 408 nm
Compound: N#Cc1ccc(-n2c(-c3ccc(-c4ccc(N(c5ccccc5)c5ccccc5)cc4)s3)nc3c4ccccc4c4ccccc4c32)c2ccccc12

emission maximum (in ClCCl): 510 nm
Compound: CN(C)c1cc(-c2ccc(C#Cc3cc[n+](C)cc3)cc2)cc2ccccc12

emission maximum (in ClCCl): 430 nm
Compound: CCOC(=O)C1=C(C(=O)OCC)C2(c3ccccc3-c3ccccc32)[C@@H](c2ccc([N+](=O)[O-])cc2)C=C2c3cc(OC)c(OC)cc3CCN21

emission maximum (in C1CCCCC1): 374 nm | emission maximum (in C1COCCO1): 396 nm | emission maximum (in CC#N): 398 nm | emission maximum (in CC(C)(C)O): 407 nm | emission maximum (in CC(C)O): 412 nm | emission maximum (in CCCCCC): 374 nm | emission maximum (in CCCCO): 411 nm | emission maximum (in CCOC(C)=O): 394 nm | emission maximum (in CN(C)C=O): 404 nm | emission maximum (in CO): 412 nm | emission maximum (in ClCCl): 398 nm | emission maximum (in O): 424 nm
Compound: O=C1Nc2ccccc2/C1=C/C(=O)c1ccccc1

emission maximum (in C1CCOC1): 668 nm | emission maximum (in CS(C)=O): 676 nm | emission maximum (in ClCCl): 661 nm
Compound: COc1cc(OC)cc(C2=C3C(C)=C(I)C(C)=[N+]3[B-](F)(F)n3c(/C=C/c4c[nH]c5ccccc45)c(I)c(C)c32)c1
